“And” between values parts separate entries of the source, which are not always exact repeats. Equal entries are not always repeated. Structures can show the parent of a compound that is named as a salt.
Columns and labels:
Parameters in all cases: species or system Brassica
[1] = test system: non-transgenic microspores; test: Selection kill curve using Geneticin (G418): embryo growth and survival in liquid medium
Excerpt: The objective was to determine the concentration of G418 that kills non-transgenic microspores.
(§1) Prior to this experiment, selection was done on solid medium, not in liquid medium. Using liquid selection for Brassica transgenic cells is novel. Selection in liquid medium is advantageous for at least the following reasons: (a) it allows selection at an early stage, thereby eliminating the need for subsequent transfers of explants, (b) it allows for a cleaner selection because the explants are generally smaller when they are in liquid medium and the liquid allows all the surfaces of the explant to be exposed to the selection agent, (c) it may reduce the frequency of chimeras, and (d) a lower amount of the selection agent is needed therefore reducing the toxicity to the researcher and the environment. The effect of various concentrations of kanamycin on embryo growth in liquid medium was tested. […] Accordingly, it was difficult to discriminate transgenic tissue or embryos from non-transgenic.

[2] = test system: pre-incubated microspores bombarded with PHP22021 and PHP22024; test: Glyphosate resistant embryo selection in liquid medium NLN-6.5S after bombardment
Procedure: Pre-incubated microspores were used as bombarded materials. Any Brassica line that is capable of regenerating by microspore culture can be used. The microspores were cultured for 1-3 days in NLN-17S at 31.5° C, and then in NLN-10S for 4-5 days at 25° C. The constructs used in the bombardments were PHP18644, PHP21965, PHP22024, PHP22021, and PHP23560 (see Table 9). The constructs can be the full plasmid or the expression cassette only. For example, PHP22024 can be either the expression cassette or the full plasmid. The pre-incubated microspores were filtrated with sieves of pore size of […] to 36 μm. The collected microspores were used for bombardment. The microspores were loaded on a sieve 15 μm or 20 μm on two layers of filter-paper and dried for less than one minute. The microspores and sieves were transferred to osmotic medium that contained B5 components, 1 g/l MES and 0.8-1.6% gelrite, 15-21% sucrose (pH 6.0). The microspores were treated for at least one hour on the osmotic medium before bombardment. The pre-incubated microspores were bombarded with 12.5 ng to 5 μg DNA per preparation, 15-100 μg Au particles per shot, 2.5 M CaCl2, and 650-900 psi rupture disk. […] Resistant embryos were recorded after two to three weeks of culture. […]

non-bombarded embryos = test: Effect of kanamycin on embryo growth in liquid medium, non-bombarded embryos
Excerpt: as §1

SMILES: CN[C@@H]1[C@@H](O)[C@@H](O[C@@H]2[C@@H](O)[C@H](O[C@H]3O[C@H]([C@@H](C)O)[C@@H](O)[C@H](O)[C@H]3N)[C@@H](N)C[C@H]2N)OC[C@]1(C)O [G418, G418 disulfate salt]
- # Green embryos or with green island ([1]; G418 1.25 mg/l, disulfate salt): 30 (paler) and 28 (paler)
- # Green embryos or with green island ([1]; G418 2.5 mg/l, disulfate salt): 14 (light green, smaller size) and 11 (light green, smaller size)
- # Green embryos or with green island ([1]; G418 5 mg/l): 0
- # Green embryos or with green island ([1]; G418 10 mg/l): 0
- concentration sufficient to differentiate transformed cells from untransformed cells (cleaner selection) ([1]; NLN with 6.5% sucrose medium): 5 to 10 mg/L

SMILES: O=C(O)CNCP(=O)(O)O [Glyphosate, glyphosate]
- # embryos (abnormal)/plate ([2]; glyphosate 0.2 mM, plasmid PHP22021): 0
- selection efficiency, false positives ([2]; selection at 0.2 mM compared with 0.1 mM glyphosate): fewer false positive results

SMILES: NC[C@H]1O[C@H](O[C@H]2[C@H](O)[C@@H](O[C@H]3O[C@H](CO)[C@@H](O)[C@H](N)[C@H]3O)[C@H](N)C[C@@H]2N)[C@H](O)[C@@H](O)[C@@H]1O [kanamycin]
- concentration sufficient to bleach non-bombarded embryos and inhibit non-bombarded embryo growth (non-bombarded embryos): 10 mg/L
